Experiments:
[1] = tested on: MeCP2-KO mouse hippocampal neurons; assay: Phenotypic neuronal atrophy screening in miniaturized 96-well cultures, treatment DIV 3 to DIV 6 (MAP2/NeuN, NeuriteQuant); type: cell-based; conditions: for total dendritic length (TDL) / terminal branches (EP): individually or in combination; for minimal effective concentration: Mus musculus, Hippocampal neuron, individual drugs, DIV 3 to DIV 6, read-out: minimum effective concentration in the in vitro assays
Protocol: Three morphological parameters were measured: 1) the area of the neuronal cell body (soma), 2) the total dendritic length (TDL), 3) the number of dendritic endpoints (EP).
The Kruskall-Wallis test was also performed in this phase, in order to compare non-parametric data between more than two groups: *p <0.05, **p<0.01, ***p<0.001.
To quantify the effects of the interactions, the same morphological parameters used to test the individual drugs at DIV 6 were measured, namely total dendritic length (TDL) and the number of terminal branches (EP = Endpoints).

[2] = in vivo; cited from earlier work

SMILES	total dendritic length (TDL) ([1]; 1 µM, DIV 3 to DIV 6 (fig. 5A, 5B))	terminal branches (EP) ([1]; 1 µM, DIV 3 to DIV 6 (fig. 5C, 5D))	minimal effective concentration [1] [µM]	total dendritic length (TDL) ([1]; 0.1 µM, DIV 3 to DIV 6 (fig. 6A, 6B))	terminal branches (EP) ([1]; 0.1 µM, DIV 3 to DIV 6 (fig. 6C, 6D))	capabilities to penetrate the blood-brain barrier [2]	half-life [2] [h]
C=C1/C(=C\C=C2/CCC[C@]3(C)[C@@H]([C@H](C)/C=C/[C@@H](O)C4CC4)CC[C@@H]23)C[C@@H](O)C[C@@H]1O [calcipotriene]	no positive effect	no positive effect	10				
O=c1[nH]c(=O)n([C@H]2C[C@H](O)[C@@H](CO)O2)cc1I [idoxuridine]			10	no positive effect	no positive effect		
Cc1ccc(C(=O)c2cc(O)c(O)c([N+](=O)[O-])c2)cc1 [tolcapone]						excellent	2.9
